We go through one compound from US20220380801A1, “TRIPARTITE SYSTEMS FOR PROTEIN DIMERIZATION AND METHODS OF USE” (priority 2019, published 2022).

The subject of experiment [1] is HCT116 cells stably expressing the PRSIM-based kill switch. Kind of experiment: Kill switch cell viability (phase contrast). It counts as cell-based, human. The following applies: 100 nM simeprevir, wt kill switch. Here is the method:
(§1) HCT116 and HT29 transduced cells were generated following the same protocol with exception of using McCoy's 5A medium+10% foetal bovine serum as growth medium, supplemented with 2 μg/ml puromycin for selection of transduced cells.
(§2) HEK293, HCT116 or HT29 cells stably expressing the PRSIM-based kill switch fusion protein (SEQ ID NO: 223) or HEK293 cells stably expressing the PRSIM kill switch S196A mutant fusion protein (SEQ ID NO: 230) were plated onto collagen-coated 96-well plates and 24 h later treated with 100 nM simeprevir. Phase contrast images were acquired at various timepoints using 10× or 20× objectives on an Incucyte Zoom (EssenBioscience).

Experiment [2] relates to HT29 cells stably expressing the PRSIM-based kill switch. Kind of experiment: Kill switch cell viability (phase contrast). It counts as cell-based, human. The following applies: 100 nM simeprevir, wt kill switch. The method, then:
as §1, §2

In the next experiment the target is HCV NS3/4A D168E PR (Hepatitis C virus subtype 1a, UniProt A8DG50, A1066T/D1194E/I1043Q/I1044E/L1039E/L1040E/L1047Q/S1165A, form not given). The experiment in a line: Octet RED384 simeprevir affinity. It counts as binding. The method, then: (§3) The biotinylated HCV NS3/4A PR (S139A), HCV NS3/4A K136D PR, HCV NS3/4A K136N PR and HCV NS3/4A D168E PR were loaded on High Precision Streptavidin (SAX) biosensors at a concentration of 2 μg/ml in 10 mM Hepes pH 7.4, 150 mM NaCl, 0.05% Surfactant P20, 0.3% DMSO. The simeprevir was diluted […] (46.88-3,000 nM) in the same buffer and the loaded biosensors were dipped into the simeprevir samples for 180 sec to measure the association. For the dissociation the biosensors were dipped into the buffer for 600 sec. The traces were analysed using ForteBio Data Analysis software and fit globally using a 1:1 binding model.
(Biolayer interferometry detects binding as a change in optical thickness at a sensor tip.)

The target of the next experiment is HCV NS3/4A PR (S139A) (Hepatitis C virus subtype 1a, UniProt A8DG50, A1066T/I1043Q/I1044E/L1039E/L1040E/L1047Q/S1165A, form not given). Kind of experiment: Octet RED384 simeprevir affinity. It counts as binding. Particulars: WT (S139A). The method, then:
as §3

Structures are written as SMILES.

Take `COc1ccc2c(O[C@@H]3C[C@H]4C(=O)N[C@]5(C(=O)NS(=O)(=O)C6CC6)C[C@H]5/C=C\CCCCN(C)C(=O)[C@@H]4C3)cc(-c3nc(C(C)C)cs3)nc2c1C` [simeprevir]: the cell death result in experiment [1] is “rapid cell death”. In experiment [2], the cell death entry was “rapid cell death”. On HCV NS3/4A D168E PR, the Kd stood at 0.033 µM, the “decreased simeprevir affinity compared to ‘WT’ (S139A)” value is on record as approximately 2 fold, the koff was 0.000665 s⁻¹ and the kon turned out to be 20000 M⁻¹ s⁻¹. In addition, at HCV NS3/4A PR (S139A), the Kd was 0.0178 µM, the off-rate (koff) was 0.000495 s⁻¹ and the association rate constant (kon) stood at 27800 M⁻¹ s⁻¹.

One may read the Kd as the concentration at which binding is half-saturated. A lower Kd goes with a tighter complex. Usually koff stands for a measure of how fast the partners let go of each other. Read a high koff as a short-lived complex. As usually defined, the kon is a measure of how fast the partners come together. Low values mean slow association, high ones fast association.
